The values that follow come from article PMC6155188 (2017).

For experiment [1], the system named is GP1 (DNA, aptamer) GGAGGCTCTCGGGACGACGGGAGCATCATTCTGAGTGTTATGTGGATTGATACGTCTGGTCGTCCCGATGCTGCAATCGTAA
The experiment can be described thus: structure-switching fluorescence titration. The conditions noted are these: 500 mM NaCl, 10 mM MgCl2, 5 mM KCl; 20 mM HEPES pH 7.4, room temperature; dabcyl-cDNA displaced; ligand stocks up to 200 mM.

Experiment [2] relates to GP2 (DNA, aptamer) GGAGGCTCTCGGGACGACGGTGTGGCCCGTGGTGTCACTAATGAAGGGATTCATTTCAGTCGTCCCGATGCTGCAATCGTAA
The experiment can be described thus: structure-switching fluorescence titration. The conditions noted are these: 500 mM NaCl, 10 mM MgCl2, 5 mM KCl; 20 mM HEPES pH 7.4, room temperature; dabcyl-cDNA displaced; ligand stocks up to 200 mM.

Experiment [3] concerns GP1 (DNA, aptamer) GGAGGCTCTCGGGACGACGGGAGCATCATTCTGAGTGTTATGTGGATTGATACGTCTGGTCGTCCCGATGCTGCAATCGTAA
Nature of the experiment: structure-switching fluorescence titration, Kd = Kd,eff1/Kd,eff2. The conditions noted are these: 500 mM NaCl, 10 mM MgCl2, 5 mM KCl; 20 mM HEPES pH 7.4, ~23 °C; dabcyl-cDNA displaced (sequence not in text); 50 nM each strand.

The subject of experiment [4] is GP2 (DNA, aptamer) GGAGGCTCTCGGGACGACGGTGTGGCCCGTGGTGTCACTAATGAAGGGATTCATTTCAGTCGTCCCGATGCTGCAATCGTAA
The description is as above. The conditions noted are these: 500 mM NaCl, 10 mM MgCl2, 5 mM KCl; 20 mM HEPES pH 7.4, ~23 °C; dabcyl-cDNA displaced (sequence not in text); 50 nM each strand.

For the compound `COC(=O)C1=CO[C@@H](O)[C@@H]2C(CO)=CC[C@H]12`, the binding entry in experiment [1] and in experiment [2] was “no” throughout.
On to `COC(=O)C1=CO[C@@H](O[C@@H]2O[C@H](CO)[C@@H](O)[C@H](O)[C@H]2O)[C@@H]2C(CO)=CC[C@H]12`, for which the results for the Kd in experiment [3] and in experiment [4] were ~ 6.1 μM and ~ 2.0 μM, respectively.
On to `OC[C@H]1OC(O)[C@H](O)[C@@H](O)[C@@H]1O` (stereo partly drawn), for which the binding entry in experiment [1] and in experiment [2] was “no” each time.
